Assay results as given in patent US20230233569A1 (Revolution Medicines, Inc., priority 2020, published 2023).
Where two headings read alike, the source gives them in different places.

How the values were obtained:
AsPC-1 (K-Ras G12D) [1] = test: CellTiter-Glo cell viability assay; assay type: cell-based; conditions: Homo sapiens, ASPC1, 120 h
Protocol: Determination of Cell Viability in RAS Mutant Cancer Cell Lines
Protocol: CellTiter-Glo® Cell Viability Assay
Note—The following protocol describes a procedure for monitoring cell viability of K-Ras mutant cancer cell lines in response to a compound of the invention. Other RAS isoforms may be employed, though the number of cells to be seeded will vary based on cell line used.
Test compounds (132.5 nL) were directly dispensed into the assay plates containing cells. […] On day 5, assay plates and their contents were equilibrated to room temperature for approximately 30 minutes. […] Luminescence was measured using the PerkinElmer Enspire. Data were normalized by the following: (Sample signal/Avg. DMSO)*100. The data were fit using a four-parameter logistic fit.

KRAS WT = KRAS WT (Homo sapiens, UniProt P01116+P62937); test: Ras-Raf disruption / FRET / MOA assay (BRAF RBD); assay type: biochemical; conditions: KRAS WT FRET data IC50, Ras-Raf disruption, with Cyclophilin A
KRAS WT, sequence (P01116 1-169 isoform P01116-2 limits assumed): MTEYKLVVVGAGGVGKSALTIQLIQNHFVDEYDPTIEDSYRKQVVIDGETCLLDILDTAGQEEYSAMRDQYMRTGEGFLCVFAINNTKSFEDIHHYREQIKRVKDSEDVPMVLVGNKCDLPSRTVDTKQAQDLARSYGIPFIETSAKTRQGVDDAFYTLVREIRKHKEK
KRAS WT, sequence (P62937 whole entry): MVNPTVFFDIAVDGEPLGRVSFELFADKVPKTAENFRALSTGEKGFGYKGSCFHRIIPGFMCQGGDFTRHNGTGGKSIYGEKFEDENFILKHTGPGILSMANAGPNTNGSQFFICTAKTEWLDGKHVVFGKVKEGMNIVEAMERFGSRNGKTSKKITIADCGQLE
Summary of the method: (§1)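 TR-FRET in 25 mM HEPES pH 7.3, 100 mM NaCl, 5 mM MgCl2, 0.1% BSA, 0.002% Tween20 with 25 μM Cyclophilin A, 12.5 nM His6-Ras-GMPPNP, 50 nM GST-BRAF RBD; compound 10-point 3-fold series from 30 μM. After 3 h at 25 °C, Eu anti-His/APC anti-GST added for 1.5 h; IC50 from ratio decrease versus DMSO.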

KRAS G12D = KRAS G12D (Homo sapiens, UniProt P01116+P62937, G12D); test: Ras-Raf disruption / FRET / MOA assay (BRAF RBD); assay type: biochemical; conditions: KRAS G12D FRET data IC50, Ras-Raf disruption, with Cyclophilin A
KRAS G12D, sequence (P01116 1-169 isoform P01116-2 G12D limits assumed): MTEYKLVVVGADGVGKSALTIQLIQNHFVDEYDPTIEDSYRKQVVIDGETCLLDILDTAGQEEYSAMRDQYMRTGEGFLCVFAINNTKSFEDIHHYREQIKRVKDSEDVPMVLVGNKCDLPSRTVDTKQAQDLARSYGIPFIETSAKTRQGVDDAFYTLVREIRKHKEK
KRAS G12D, sequence (P62937 whole entry): as the sequence (P62937 whole entry) above
Summary of the method: as §1

NRAS G12C = NRAS G12C (Homo sapiens, UniProt P01111+P62937, G12C); test: Ras-Raf disruption / FRET / MOA assay (BRAF RBD); assay type: biochemical; conditions: NRAS G12C FRET data IC50, NRAS G12C
NRAS G12C, sequence (P01111 whole entry G12C): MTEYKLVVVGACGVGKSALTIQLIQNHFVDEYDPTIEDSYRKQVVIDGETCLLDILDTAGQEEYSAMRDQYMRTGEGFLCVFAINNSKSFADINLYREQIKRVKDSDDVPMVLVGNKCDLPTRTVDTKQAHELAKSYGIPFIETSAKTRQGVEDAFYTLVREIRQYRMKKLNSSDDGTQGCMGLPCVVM
NRAS G12C, sequence (P62937 whole entry): as the sequence (P62937 whole entry) above
Summary of the method: as §1

KRAS G12S = KRAS G12S (Homo sapiens, UniProt P01116+P62937, G12S); test: Ras-Raf disruption / FRET / MOA assay (BRAF RBD); assay type: biochemical; conditions: KRAS G12S FRET data IC50, Ras-Raf disruption, with Cyclophilin A
KRAS G12S, sequence (P01116 1-169 isoform P01116-2 G12S limits assumed): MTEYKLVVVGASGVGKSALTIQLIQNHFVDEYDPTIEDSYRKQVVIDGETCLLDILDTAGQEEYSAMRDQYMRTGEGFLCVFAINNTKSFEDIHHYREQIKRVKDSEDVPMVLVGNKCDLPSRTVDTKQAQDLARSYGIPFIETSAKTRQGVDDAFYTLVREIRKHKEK
KRAS G12S, sequence (P62937 whole entry): as the sequence (P62937 whole entry) above
Summary of the method: as §1

KRAS G12V = KRAS G12V (Homo sapiens, UniProt P01116+P62937, G12V); test: Ras-Raf disruption / FRET / MOA assay (BRAF RBD); assay type: biochemical; conditions: KRAS G12V FRET data IC50, Ras-Raf disruption, with Cyclophilin A
KRAS G12V, sequence (P01116 1-169 isoform P01116-2 G12V limits assumed): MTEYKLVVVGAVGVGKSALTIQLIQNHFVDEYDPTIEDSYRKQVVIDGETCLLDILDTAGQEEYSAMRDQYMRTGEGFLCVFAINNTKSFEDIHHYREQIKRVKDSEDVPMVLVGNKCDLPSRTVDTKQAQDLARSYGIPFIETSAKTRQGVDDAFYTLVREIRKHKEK
KRAS G12V, sequence (P62937 whole entry): as the sequence (P62937 whole entry) above
Summary of the method: as §1

KRAS G13D = KRAS G13D (Homo sapiens, UniProt P01116+P62937, G13D); test: Ras-Raf disruption / FRET / MOA assay (BRAF RBD); assay type: biochemical; conditions: KRAS G13D FRET data IC50, Ras-Raf disruption, with Cyclophilin A
KRAS G13D, sequence (P01116 1-169 isoform P01116-2 G13D limits assumed): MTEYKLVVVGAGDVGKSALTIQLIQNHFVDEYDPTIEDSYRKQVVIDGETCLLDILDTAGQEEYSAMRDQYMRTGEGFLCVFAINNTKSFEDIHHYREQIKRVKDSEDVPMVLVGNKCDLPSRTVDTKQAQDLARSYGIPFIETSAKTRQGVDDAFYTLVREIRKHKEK
KRAS G13D, sequence (P62937 whole entry): as the sequence (P62937 whole entry) above
Summary of the method: as §1

KRAS G13C = KRAS G13C (Homo sapiens, UniProt P01116+P62937, G13C); test: Ras-Raf disruption / FRET / MOA assay (BRAF RBD); assay type: biochemical; conditions: KRAS G13C FRET data IC50, Ras-Raf disruption, with Cyclophilin A
KRAS G13C, sequence (P01116 1-169 isoform P01116-2 G13C limits assumed): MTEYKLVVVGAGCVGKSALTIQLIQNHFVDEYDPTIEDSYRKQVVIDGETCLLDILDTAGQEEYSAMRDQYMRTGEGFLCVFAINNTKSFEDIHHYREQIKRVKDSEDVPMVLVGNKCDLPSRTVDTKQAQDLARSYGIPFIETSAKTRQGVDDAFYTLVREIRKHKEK
KRAS G13C, sequence (P62937 whole entry): as the sequence (P62937 whole entry) above
Summary of the method: as §1

KRAS G12C = KRAS G12C (Homo sapiens, UniProt P01116+P62937, G12C); test: Ras-Raf disruption / FRET / MOA assay (BRAF RBD); assay type: biochemical; conditions: KRAS G12C FRET data IC50, Ras-Raf disruption, with Cyclophilin A
KRAS G12C, sequence (P01116 1-169 isoform P01116-2 G12C limits assumed): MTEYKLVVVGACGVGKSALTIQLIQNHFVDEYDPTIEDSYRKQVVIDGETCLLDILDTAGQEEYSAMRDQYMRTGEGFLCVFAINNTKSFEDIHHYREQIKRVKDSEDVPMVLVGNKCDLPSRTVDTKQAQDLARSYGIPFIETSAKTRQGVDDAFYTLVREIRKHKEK
KRAS G12C, sequence (P62937 whole entry): as the sequence (P62937 whole entry) above
Summary of the method: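 His6-K-Ras G12C-GMPPNP (12.5 nM), GST-BRAF RBD (50 nM) and tagless Cyclophilin A (25 μM) incubated 3 h at 25 °C with compound (10-point 3-fold series from 30 μM), pH 7.3 HEPES buffer. Anti-His Eu/anti-GST APC added for 1.5 h; decreased TR-FRET ratio vs DMSO gives IC50.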

AsPC-1 (K-Ras G12D) [2] = test: Potency assay: pERK; assay type: cell-based; conditions: Homo sapiens
[3] = read-out: AsPC-1 Cell Viability assay data IC50, K-Ras G12D, 5-day treatment
[4] = K-Ras G12D, 5-day treatment, read-out: AsPC-1 Cell Viability assay data IC50
[5] = ASPC1, AsPC-1 KRAS G12D, read-out: pERK EC50

SMILES	IC50 (AsPC-1 (K-Ras G12D) [1]; [3]) [µM]	IC50 (KRAS WT) [µM]	IC50 (KRAS G12D) [µM]	IC50 (NRAS G12C) [µM]	IC50 (KRAS G12S) [µM]	IC50 (KRAS G12V) [µM]	IC50 (KRAS G13D) [µM]	IC50 (KRAS G13C) [µM]	IC50 (KRAS G12C) [µM]	EC50 (AsPC-1 (K-Ras G12D) [2]; ASPC1, read-out: pERK EC50) [µM]	IC50 (AsPC-1 (K-Ras G12D) [1]; [4]) [µM]	EC50 (AsPC-1 (K-Ras G12D) [2]; [5]) [µM]
CCn1c(-c2cccnc2[C@H](C)OC)c2c3cc(ccc31)-c1cc(O)cc(c1)C[C@H](NC(=O)[C@H](C(C)C)N(C)C(=O)CNC(=O)[C@H]1CN1)C(=O)N1CCC[C@H](N1)C(=O)OCC(C)(C)C2 [Example 140]	1 to 10	0.01 to 0.1	0.01 to 0.1	< 0.01	0.01 to 0.1	0.01 to 0.1	0.01 to 0.1	< 0.01	< 0.01	< 5	–	–
CCn1c(-c2cccnc2[C@H](C)OC)c2c3cc(ccc31)-c1cc(O)cc(c1)C[C@H](NC(=O)[C@H](C(C)C)N(C)C(=O)CN(C)C(=O)[C@H]1CN1CCO)C(=O)N1CCC[C@H](N1)C(=O)OCC(C)(C)C2 (stereo partly shown) [Example 161]	1 to 10	0.01 to 0.1	0.1 to 1	< 0.01	0.01 to 0.1	0.01 to 0.1	0.1 to 1	0.01 to 0.1	< 0.01	< 5	–	–
CCn1c(-c2cnccc2COC)c2c3cc(ccc31)-c1cc(O)cc(c1)C[C@H](NC(=O)[C@H](C(C)C)N(C)C(=O)CN(C)C(=O)C1CN1)C(=O)N1CCC[C@H](N1)C(=O)OCC(C)(C)C2 (stereo partly shown) [Example 33]	–	–	–	–	–	–	–	–	0.01 to 0.1	< 5	–	–
CCn1c(-c2cccnc2[C@H](C)OC)c2c3cc(ccc31)-c1cc(O)cc(c1)C[C@H](NC(=O)[C@@H](C(C)C)N(C)C(=O)[C@@]1(C)CCCN1C(=O)[C@H]1CN1)C(=O)N1CCC[C@H](N1)C(=O)OCC(C)(C)C2 [Example 240]	–	–	–	–	–	–	–	–	–	–	1 to 10	< 5
CCn1c(-c2cccnc2[C@H](C)OC)c2c3cc(ccc31)-c1cc(O)cc(c1)C[C@H](NC(=O)[C@H](C(C)C)N(C)C(=O)[C@H]1CC[C@@H](C)N1C(=O)[C@@H]1CN1)C(=O)N1CCC[C@H](N1)C(=O)OCC(C)(C)C2 [Example 153]	1 to 10	0.1 to 1	0.1 to 1	0.01 to 0.1	0.1 to 1	0.1 to 1	0.1 to 1	0.1 to 1	0.01 to 0.1	< 5	–	–
CCn1c(-c2cnccc2COC)c2c3cc(ccc31)-c1cc(O)cc(c1)C[C@H](NC(=O)[C@H](C(C)C)N(C)C(=O)CN(C)C(=O)[C@H]1N[C@H]1c1ccccc1)C(=O)N1CCC[C@H](N1)C(=O)OCC(C)(C)C2 [Example 116]	> 10	–	–	–	–	–	–	–	–	–	–	–
CCn1c(-c2cccnc2[C@H](C)OC)c2c3cc(ccc31)-c1cc(O)cc(c1)C[C@H](NC(=O)[C@H](C(C)C)N(C)C(=O)[C@]13C[C@H]1CCN3C(=O)[C@H]1CN1)C(=O)N1CCC[C@H](N1)C(=O)OCC(C)(C)C2 [Example 244]	–	–	–	–	–	–	–	–	–	–	1 to 10	< 5
